Reference: PMC2867052 (Journal of contaminant hydrology, 2009)
Read-outs that look alike come from different tables or passages of the source.

Assays:
[1] = format: physicochemical; details: for Dissolution Rate Coeff. (kL): model-calibrated initial value
[2] = format: physicochemical; details: for Sherwood Number (Sh): calculated from initial dissolution rate coefficient; for Dissolution Rate Coeff. (kL): model-calibrated initial value
[3] = 10% by weight HPCD
[4] = 1 Component - HPCD (10% by weight)
[5] = 3 Component - HPCD (10% by weight)
[6] = single-component organic liquid

Structure (SMILES): CCCCc1ccccc1 [butylbenzene]
- E-Normalized Rate Coeff. (kL/E) ([1]; 1 Component - HPCD): 16 ± 2 h⁻¹
- Sherwood Number (Sh) [1, 4]: 100
- Dissolution Rate Coeff. (kL) [1, 4]: 1902 ± 240 h⁻¹
- E-Normalized Rate Coeff. (kL/E) ([1]; 3 Component - HPCD): 15 ± 4 h⁻¹
- Sherwood Number (Sh) [1, 5]: 82
- Dissolution Rate Coeff. (kL) [1, 5]: 1900 ± 490 h⁻¹
- E-Normalized Rate Coeff. (kL/E) ([2]; 3 Component - Water): 15 ± 11 h⁻¹
- Sherwood Number (Sh) ([2]; 3 Component - Water): 0.6
- Dissolution Rate Coeff. (kL) ([2]; 3 Component - Water): 15 ± 11 h⁻¹

Structure (SMILES): CCc1ccccc1 [ethylbenzene]
- E-Normalized Rate Coeff. (kL/E) ([1]; 1 Component - HPCD): 17 ± 3 h⁻¹
- Sherwood Number (Sh) [1, 4]: 15
- Dissolution Rate Coeff. (kL) [1, 4]: 342 ± 57 h⁻¹
- E-Normalized Rate Coeff. (kL/E) ([1]; 3 Component - HPCD): 18 ± 3 h⁻¹
- Sherwood Number (Sh) [1, 5]: 14
- Dissolution Rate Coeff. (kL) [1, 5]: 341 ± 57 h⁻¹
- E-Normalized Rate Coeff. (kL/E) ([2]; 3 Component - Water): 17 ± 3 h⁻¹
- Sherwood Number (Sh) ([2]; 3 Component - Water): 0.6
- Dissolution Rate Coeff. (kL) ([2]; 3 Component - Water): 17 ± 3 h⁻¹
- 10% HPCD Enhancement Factor (E°) [3, 6]: 20
- 10% HPCD Enhancement Factor (E°) ([3]; three-component organic liquid (Tol-EB-BB)): 19

Structure (SMILES): Cc1ccccc1 [toluene, Toluene]
- E-Normalized Rate Coeff. (kL/E) ([1]; 1 Component - HPCD): 21 ± 6 h⁻¹
- Sherwood Number (Sh) [1, 4]: 6
- Dissolution Rate Coeff. (kL) [1, 4]: 161 ± 44 h⁻¹
- E-Normalized Rate Coeff. (kL/E) ([1]; 3 Component - HPCD): 21 ± 4 h⁻¹
- Sherwood Number (Sh) [1, 5]: 6
- Dissolution Rate Coeff. (kL) [1, 5]: 165 ± 30 h⁻¹
- E-Normalized Rate Coeff. (kL/E) ([2]; 1 Component - Water): 22 ± 5 h⁻¹
- E-Normalized Rate Coeff. (kL/E) ([2]; 3 Component - Water): 21 ± 4 h⁻¹
- Dissolution Rate Coeff. (kL) ([2]; 3 Component - Water): 21 ± 4 h⁻¹
- 10% HPCD Enhancement Factor (E°) [3, 6]: 7.7
